Earlier results as cited in US20010031747A1, “Progestin therapy for maintaining amenorrhea” (COLUMBIA LABORATORIES (BERMUDA) LIMITED, priority 1997, published 2001).
Where two headings read alike, the source gives them in different places.

Columns and labels:
[1] = subdermal, six 100 mg pellets
[2] = intramuscular; 100 mg doses
[3] = sublingual
endometrium = settings: topical application to the breast
[4] = nasal

## CC(=O)[C@H]1CC[C@H]2[C@@H]3CCC4=CC(=O)CC[C@]4(C)[C@H]3CC[C@]12C [progesterone]
Vaginal suspension 50 mg/ml (carboxymethyl cellulose, methyl cellulose), after 15 minutes
  Increase over baseline serum levels: 10 fold
Vaginal suspension 50 mg/ml, at peak
  Peak increase over baseline levels: thirty- to forty
Vaginal suspension 50 mg/ml, declining over the next ten hours
  Serum level after decline: 3.68 ng/mL
Vaginal suspension 50 mg/ml, maintained over the next seven hours
  Peak serum level: 12.25 ng/mL
[1]; six months after implantation
  Mean peak progesterone level: 1.9 ng/mL
[1]; within the first week after insertion
  Peak progesterone level: 4.4 ng/mL
[2]
  Time to achieve serum concentrations: two to eight
[3]
  Time to return to basal levels: twenty-four
endometrium
  Endometrial effects: no significant endometrial effects
[4]; 20 mg dose
  Mean maximum concentration: 2.1 ng/mL
  Time of mean maximum concentration: approximately 30 minutes
[4]; 30 mg dose
  Mean maximum concentration: 4.1 ng/mL
  Time of mean maximum concentration: ~240 min
